Here are results for six molecules from PMC8469489, “Effect of Lactic Acid Bacteria on the Pharmacokinetics and Metabolism of Ginsenosides in Mice” (Pharmaceutics, 2021).

Some results are limits rather than exact numbers.

Series [1] is described as follows: Plasma protein binding by rapid equilibrium dialysis. The conditions noted are these: 1 μM, 4 h at 37 °C, mouse plasma. Type of series: in vitro ADME. How it is done: Briefly, 100 μL of mouse plasma containing 1 μM of each ginsenoside was added to the semipermeable membrane’s inner sample chamber (molecular weight cut-off 8000 Da), and 300 μL of PBS was added to the outer buffer chamber. The samples were then incubated for 4 h at 37 °C on a shaking incubator at 300 rpm, followed by collecting 30-μL aliquots from both the sample and buffer chambers.
(§1) Subsequent protocols were identical to the method described above except for the use of ice-cold IS solution (200 μL; 0.05 ng/mL berberine in acetonitrile) to 30 μL of the reaction samples.
Plasma protein binding was calculated using the following equation [31, 60]: Plasma protein binding=(1−Drug concentration in buffer chamber/Drug concentration in plasma sample chamber)×100(%).

The test system of series [2] is lactic acid bacteria (LAB). Nature of the series: In vitro RGE fermentation with LAB. The note with it: for Alteration of ginsenoside by fermentation of RGE with LAB: 7 days incubation.
A short description of series [3]: Recovery of ginsenosides from urine and feces for 48 h after RGE, amoxicillin with or without LAB. The conditions noted are these: for Fecal recovery, change by LAB treatment: feces 48 h after single oral RGE 2 g/kg, Amoxicillin + LAB vs amoxicillin.
Procedure: (§2) Mice received amoxicillin (n = 12, 20 mg/kg, dissolved in water at 2 mL/kg, twice daily) for 3 days via oral gavage. From the 4th day, mice from the LAB + amoxicillin treatment group received LAB (2 g/kg suspended in water at 2 mL/kg, once daily) for 7 days via oral gavage. Mice from the amoxicillin treatment group received water (2 mL/kg, once daily) for 7 days via oral gavage.
A short description of series [4]: Pharmacokinetics of ginsenosides after single oral RGE with or without amoxicillin treatment. The note with it: single oral RGE 2 g/kg; for AUC: AUC 0 to 48 h. Type of series: in vivo, mice. How it is done:
Male ICR mice (7-weeks-year-old, 30–35 g) were purchased from Samtako Co. (Osan, Kyunggi-do, Korea). Animals were acclimatized for 1 week in an animal facility at Kyungpook National University. Food and water were available ad libitum.
Before blood sampling, mice were anesthetized using isoflurane (isoflurane vaporizer to 2% with oxygen flow at 0.8 L/min) for 5 min.

For series [5], the system named is lactic acid bacteria (LAB). As to the kind of experiment: Incubation of single ginsenoside with LAB (formation rate of metabolite ginsenoside). The format is in vitro ADME. The note with it: 7 days, 37 °C, MRS broth. How it is done: To compare the involvement of LAB on individual ginsenoside, an aliquot (10 μL) of each ginsenoside stock solution (10 mM in methanol) was mixed with autoclaved MRS broth (550 mg/10 mL in distilled water) and added 2 g of LAB (contained 1 billion CFU). Then, the mixture was incubated for 7 days in a shaking incubator at 37 °C and 300 rpm. For the analysis of ginsenosides, 0.2 mL aliquot of incubation mixture was collected every 24 h for 7 days. The incubation medium was diluted 100-fold with distilled water and stored at −80 °C. For the ginsenoside analysis, 200 μL of an IS solution (0.05 ng/mL berberine in methanol) was added to 30 μL of 100-fold diluted samples.

On the set-up of series [6]: method as in PMID 32023909. The note with it: cited from earlier work.
The nature of series [7]: Recovery of ginsenosides from urine and feces for 48 h after RGE, amoxicillin vs control. The conditions noted are these: for Ginsenosides identified in urine: urine 48 h after single oral RGE 2 g/kg.
Procedure: Aliquots (200 μL) of an IS (0.05 ng/mL berberine in methanol) were added to 30 μL of plasma or urine samples. Aliquots (600 μL) of an IS methanol solution containing 0.05 ng/mL berberine were added to 100 μL of 10% feces homogenate samples. […] After centrifugation, 200 μL of the supernatant was transferred to a clean tube and dried under a nitrogen stream at 40 °C. The residue was reconstituted using 100 μL of 70% methanol supplemented with 0.1% formic acid, and a 10-μL aliquot was injected into the LC–MS/MS system.
Series [8] can be described thus: Pharmacokinetics of ginsenosides after single oral RGE after amoxicillin with or without repeated LAB treatment. The note with it: single oral RGE 2 g/kg; for AUC: AUC 0 to 48 h.
Procedure: as §2
Blood sampling was performed using a sparse sampling method via the right or left retro-orbital vein under isoflurane anesthesia at 0, 2, 4, and 8 h after the RGE administration through the heparinized capillary tube. […] After centrifugation of the blood samples at 10,000× g for 1 min, 30 μL aliquots of plasma were stored at −80 °C until the analysis of the ginsenosides. Subsequent protocols were identical to the amoxicillin treated group.
Pharmacokinetic parameters were calculated using WinNonlin (version 5.1, Pharsight, Mountain View, CA, USA) by a non-compartmental analysis.
The next series can be described thus: Microsomal stability. Type of series: in vitro ADME, mouse. The note with it: 1 μM; for Metabolic stability in mouse liver microsomes: incubation for 1 h. How it is done: For microsomal stability, individual ginsenoside (1 μM each) was reconstituted in 100 mM potassium phosphate buffer (pH 7.4) containing 0.25 mg of mouse liver microsomes and preincubated for 5 min at 37 °C. This reaction was initiated by adding an NADPH-generating system (1.3 mM β-NADP, 3.3 mM glucose-6-phosphate, 3.3 mM MgCl2, and 1.0 unit/mL glucose-6-phosphate dehydrogenase; purchased form Corning Life Sciences) (to make final volume of 100 μL). The reaction mixture was incubated for 1 h at 37 °C in a shaking water bath and the reaction was quenched by addition of addition of an ice-cold IS solution (200 μL; 0.05 ng/mL berberine in methanol) to 30 μL of the reaction samples.
as §1
Plasma and microsomal stability was determined from the percent of remaining concentration of ginsenosides or marker compounds compared to their initial concentration.
On the technique in general: Liver microsomes are vesicles of endoplasmic reticulum, rich in cytochrome P450 enzymes.

Setting [9] is: Amoxicillin 3 days pretreatment.
Setting [10] is: Amoxicillin 3 days then water 7 days.
Setting [11] is: Amoxicillin + LAB (LAB 2 g/kg once daily 7 days).

With `CC(C)=CCC[C@](C)(O[C@@H]1O[C@H](CO)[C@@H](O)[C@H](O)[C@H]1O)[C@H]1CC[C@]2(C)[C@@H]1[C@H](O)C[C@@H]1[C@@]3(C)CC[C@H](O)C(C)(C)[C@@H]3[C@@H](O)C[C@]12C` [GF1], in series [1], the Plasma protein binding entry is on record as “over 99%”. In addition, the “Alteration of ginsenoside by fermentation of RGE with LAB” value (“Alteration of ginsenoside” for short) in series [2] is reported as “most significant decrease”. Moreover, the “Fecal recovery, change by LAB treatment” value in series [3] is “remained similar”.
Regarding `CC(C)=CCC[C@](C)(O[C@@H]1O[C@H](CO[C@@H]2O[C@@H](CO)[C@H](O)[C@H]2O)[C@@H](O)[C@H](O)[C@H]1O)[C@H]1CC[C@]2(C)[C@@H]1[C@H](O)C[C@@H]1[C@@]3(C)CC[C@H](O[C@@H]4O[C@H](CO)[C@@H](O)[C@H](O)[C@H]4O[C@@H]4O[C@H](CO)[C@@H](O)[C@H](O)[C@H]4O)C(C)(C)[C@@H]3CC[C@]12C` [GRc], the Cmax (as a rule, the highest concentration seen after dosing) in [4] (setting [9]) is listed as 14.8 ± 6.6 ng/mL; in series [4] (Control, plasma) it was 17.2 ± 3.1 ng/mL; in series [8] (setting [10]), 13.2 ± 6.6 ng/mL; in series [8] (Amoxicillin + LAB), 18.3 ± 4.3 ng/mL. The Half-Life is given as 25.1 ± 9.9 h in series [4] (setting [9]); 22.8 ± 6.7 h in series [4] (Control, plasma); 20.2 ± 1.8 h in series [8] (setting [10]); 24.1 ± 2.4 h in [8] (Amoxicillin + LAB). Also, the MRT – broadly, the average time that molecules of a dose stay in the body – in [4] (setting [9]) is 21.9 ± 1.5 h; in [4] (Control, plasma), 19.9 ± 1.7 h; in series [8] (setting [10]) it was 20.6 ± 1.2 h; in series [8] (Amoxicillin + LAB), 19.0 ± 1.3 h. Besides, the Tmax – broadly, the time from dosing to the highest level – in [4] (setting [9]) is listed as 13.3 ± 9.2 h; in series [4] (Control, plasma) it was 8.0 ± 0.0 h; in series [8] (setting [10]), 4.7 ± 3.1 h; in series [8] (Amoxicillin + LAB), 8.0 ± 0.0 h. For the same molecule, the AUC (usually the area under the concentration-time curve, a measure of exposure) was found to be 571.7 ± 276 ng·h/mL in series [4] (setting [9]); 508.6 ± 109 ng·h/mL in series [4] (Control, plasma, n = 3); 448.2 ± 268.1 ng·h/mL in series [8] (setting [10]); 524.4 ± 146.6 ng·h/mL in series [8] (setting [11]). Moreover, the “Plasma concentrations, amoxicillin treatment compared to the control group” value in series [4] is “not significantly affected”. Also, in series [5], the “Metabolite formation on incubation of single ginsenoside with LAB” value (“Metabolite formation on incubation” for short) was “produced GRg3 with the highest formation rate”. In [6], the “Ratio of liver AUC to plasma AUC” value was below 0.2. Also, in series [2], the “Alteration of ginsenoside” value is “most significant decrease”. The “Fecal recovery, change by the amoxicillin treatment” value in series [7] (feces 48 h after single oral RGE 2 g/kg, vs control) is recorded as “increased”. The “Ginsenosides identified in urine” value in series [7] is “identified in urine”. In addition, the “Fecal recovery, change by LAB treatment” value in series [3] was “significantly decreased”. Further, the “Detection in mouse plasma following repeated LAB administration in addition to amoxicillin” value (“Detection” for short) in [8] is “detected”. Besides, the “Plasma exposure / pharmacokinetic parameters, LAB treatment compared with amoxicillin group” value in [8] is “not different”.
On to `CN(C)C(=N)N=C(N)N` [metformin, reference compound], for which the “percent of remaining after 1 h incubation in the mouse liver microsomes” value in “Microsomal stability” (NADPH-generating system, 37 °C) is reported as 69.35 ± 3.00%.
Consider `CC(C)=CCC[C@](C)(O)[C@H]1CC[C@]2(C)[C@@H]1[C@H](O)C[C@@H]1[C@@]3(C)CC[C@H](O[C@@H]4O[C@H](CO)[C@@H](O)[C@H](O)[C@H]4O)C(C)(C)[C@@H]3CC[C@]12C` [GRh2], for which the “Metabolic stability in mouse liver microsomes” value in the series “Microsomal stability” was “unstable”. Besides, in [5], the “Metabolite formation on incubation” value was “the highest among the ginsenoside formation rate”. Besides, the “Alteration of ginsenoside” value in series [2] is reported as “remained unchanged”. The “Fecal recovery, change by LAB treatment” value in [3] is given as “remained similar”. The “Detection” value in [8] is listed as “not found”.
Regarding `CC(C)=CCC[C@](C)(O)[C@H]1CC[C@]2(C)[C@@H]1[C@H](O)C[C@@H]1[C@@]3(C)CC[C@H](O)C(C)(C)[C@@H]3[C@@H](O[C@@H]3O[C@H](CO)[C@@H](O)[C@H](O)[C@H]3O)C[C@]12C` [GRh1, ginsenoside Rh1], the “Metabolic stability in mouse liver microsomes” value in the series “Microsomal stability” is listed as “unstable”. Moreover, the “Increase of ginsenoside by fermentation of RGE with LAB” value in series [2] (7 days, relative to the first day) is “about 30%”. Further, the “Fecal recovery, change by LAB treatment” value in [3] was “remained similar”. In [8], the “Detection” value is “not found”.
Regarding `CC(C)=CCC[C@](C)(O[C@@H]1O[C@H](CO)[C@@H](O)[C@H](O)[C@H]1O)[C@H]1CC[C@]2(C)[C@@H]1[C@H](O)C[C@@H]1[C@@]3(C)CC[C@H](O[C@@H]4O[C@H](CO)[C@@H](O)[C@H](O)[C@H]4O[C@@H]4O[C@H](CO)[C@@H](O)[C@H](O)[C@H]4O)C(C)(C)[C@@H]3CC[C@]12C` [GRd], the Cmax is recorded as 3.2 ± 1.6 ng/mL in series [4] (setting [9]); 8.6 ± 1.8 ng/mL in series [4] (Control, plasma); 6.5 ± 5.1 ng/mL in [8] (setting [10]); 18.4 ± 6.9 ng/mL in series [8] (Amoxicillin + LAB). Further, the Half-Life in [4] (setting [9]) was determined as 29.1 ± 8.6 h; in series [4] (Control, plasma), 24.2 ± 3.1 h; in series [8] (setting [10]) it was 29.2 ± 2.7 h; in series [8] (Amoxicillin + LAB), 25.5 ± 3.8 h. Besides, the MRT in [4] (setting [9]) worked out at 24.0 ± 2.1 h; in series [4] (Control, plasma), 21.3 ± 3.0 h; in [8] (setting [10]) it was 24.1 ± 3.9 h; in series [8] (Amoxicillin + LAB) it was 20.6 ± 3.7 h. In addition, the Tmax in series [4] (setting [9]) was found to be 24.7 ± 23.0 h; in [4] (Control, plasma) it was 13.3 ± 9.2 h; in series [8] (setting [10]) it was 5.3 ± 2.3 h; in series [8] (Amoxicillin + LAB) it was 16.0 ± 9.2 h. The AUC is 132.4 ± 77 ng·h/mL in [4] (setting [9]); 278.8 ± 117 ng·h/mL in series [4] (Control, plasma, n = 3); 213.1 ± 151.3 ng·h/mL in [8] (setting [10]); 618.1 ± 385.6 ng·h/mL in [8] (setting [11]). The “Plasma concentrations, amoxicillin treatment compared to the control group” value in [4] is “decreased”. Besides, the “Metabolite formation on incubation” value in series [5] is “produced GRg3 with the highest formation rate”. In series [6], the “Ratio of liver AUC to plasma AUC” value was below 0.2. For the same molecule, the “Alteration of ginsenoside” value in [2] was “gradual decrease”. Besides, the “Ginsenosides identified in urine” value in series [7] is listed as “identified in urine”. Besides, the “Fecal recovery, change by LAB treatment” value in series [3] is recorded as “significantly decreased”. Besides, the “Urinary excretion, Amoxicillin + LAB compared with amoxicillin group” value in series [3] (urine 48 h after single oral RGE 2 g/kg) is reported as “increased”. The “Detection” value in series [8] was “detected”. Also, the “Plasma exposure / pharmacokinetic parameters, LAB treatment compared with amoxicillin group” value in series [8] is “increased”; in [8] (listed as Rd), “significantly increased”.
